Laboratory results: patent US20240002846A1, “COMPOSITIONS AND METHODS FOR THE DIAGNOSIS AND TREATMENT OF ITCH” (Duke University, priority 2020, published 2024)
Entries after “also recorded” stand apart in the source; their conditions may differ.

What was measured:
mice [1] = test: Scratching behavior after i.d. injection into dorsal neck skin; type: in vivo, mouse; settings: for scratching behavior (itch) induced by i.d. injection of lipid: i.d. into dorsal neck, LPA 18:1 500 μg, LPC 50-500 μg, LPC species at the same dose
Description: (§1) Behavioral assessment. Mice were shaved at the dorsal neck 1 d before experiments. Mice were allowed to acclimate to a Plexiglas chamber for at least 30 min before testing and received intradermal (i.d.) injection of 50 μL of LPA 18:1, LPC, LPC 14:0, LPC 16:0, LPC 18:0, LPC 18:1, miR-146a mimic, miR-146a scramble, ATP or vehicles through a 30-gauge needle (Becton Dickinson, Franklin Lakes, NJ) into the neck skin. After injections, mice were immediately placed back to the chamber, and the scratching behavior was recorded by a Panasonic video camera for 30 min. Hind limb scratching behavior directed toward the injected area at the nape of neck was observed. One scratch is defined as a lifting of the hind limb toward the injection site and then a replacing of the limb back to the floor, regardless of how many scratching strokes take place between those two movements. Behavioral analysis was conducted by observers blinded to genotype.

mouse keratinocytes = test: Ca2+ imaging in cultured mouse keratinocytes; type: cell-based; settings: for effect on LPC 18:1 (10 μM)-induced Ca2+ influx (GPCR-signaling inhibitors): inhibitor 10 μM; for LPA (18:1) induced Ca2+ influx: up to 30 μM
Description: Basal keratinocytes were separated from the cornified sheets by filtration through a […] cell strainer. Keratinocytes were plated on collagen I-coated dishes or glass coverslips and grown in EME media (Gibco, Gaithersburg, MD) containing 8% chelex (Bio-rad, Hercules, CA)-treated FBS with the final Ca^2+ adjusted to 0.05 mM, bovine pituitary extract (50 μg/mL), epidermal growth factor (5 ng/mL), and lx antibiotics/antimycotics (Gibco, Gaithersburg, MD) in a humidified incubator with 5% CO2 at 37° C. for 5-7 days until use. To knockdown Trpv4 in isolated keratinocytes from newborn keratinocyte-Trpv4 cKO mice, cells were treated with 4-OH tamoxifen at 500 nM for 72 h.
(§2) In vitro and ex vivo Ca^2+ imaging. […] Ca^2+ imaging of cultured cells in response to chemicals was conducted after loading with 5 μM Fura2-AM (Invitrogen, Waltham, MA) for 45 min after a ratiometric Ca^2+-imaging protocol with 340/380-nm blue light for dual excitation. Ratios of emissions were acquired at 0.5 Hz. ΔR/R0 was determined as the fraction of the increase of a given ratio over baseline ratio divided by baseline ratio. […] Control cells received vehicles.

human keratinocytes = test: Ca2+ imaging in cultured human keratinocytes; type: cell-based; settings: for effect on LPC 18:1 (10 μM)-induced Ca2+ influx (GPCR-signaling inhibitors): inhibitor 10 μM; for LPA (18:1) induced Ca2+ influx: up to 30 μM
Description: In brief, surgically discarded foreskin samples, obtained from Duke Children's Hospital in accordance to institutionally approved IRB protocol, were incubated with Dispase (Gibco, Gaithersburg, MD, 4 U/mL) for 12-16 h at 4° C. followed by 0.05% trypsin (Gibco, Gaithersburg, MD) for 10-20 min at 37° C. Cells were maintained in keratinocyte serum-free media (Invitrogen, Waltham, MA) with 5% CO2 at 37° C. and used at passage 2-3.
as §2

hTRPV4 = molecular target: T1, hTRPV4 (Homo sapiens, UniProt Q9HBA0); test: Ca2+ imaging in HEK cells transfected with hTRPV4; type: cell-based; settings: inhibitor 10 μM
T1 construct: expressed in transfected cells; host or cells: HEK293 (ATCC CRL-1573)
T1 sequence (Q9HBA0 whole entry): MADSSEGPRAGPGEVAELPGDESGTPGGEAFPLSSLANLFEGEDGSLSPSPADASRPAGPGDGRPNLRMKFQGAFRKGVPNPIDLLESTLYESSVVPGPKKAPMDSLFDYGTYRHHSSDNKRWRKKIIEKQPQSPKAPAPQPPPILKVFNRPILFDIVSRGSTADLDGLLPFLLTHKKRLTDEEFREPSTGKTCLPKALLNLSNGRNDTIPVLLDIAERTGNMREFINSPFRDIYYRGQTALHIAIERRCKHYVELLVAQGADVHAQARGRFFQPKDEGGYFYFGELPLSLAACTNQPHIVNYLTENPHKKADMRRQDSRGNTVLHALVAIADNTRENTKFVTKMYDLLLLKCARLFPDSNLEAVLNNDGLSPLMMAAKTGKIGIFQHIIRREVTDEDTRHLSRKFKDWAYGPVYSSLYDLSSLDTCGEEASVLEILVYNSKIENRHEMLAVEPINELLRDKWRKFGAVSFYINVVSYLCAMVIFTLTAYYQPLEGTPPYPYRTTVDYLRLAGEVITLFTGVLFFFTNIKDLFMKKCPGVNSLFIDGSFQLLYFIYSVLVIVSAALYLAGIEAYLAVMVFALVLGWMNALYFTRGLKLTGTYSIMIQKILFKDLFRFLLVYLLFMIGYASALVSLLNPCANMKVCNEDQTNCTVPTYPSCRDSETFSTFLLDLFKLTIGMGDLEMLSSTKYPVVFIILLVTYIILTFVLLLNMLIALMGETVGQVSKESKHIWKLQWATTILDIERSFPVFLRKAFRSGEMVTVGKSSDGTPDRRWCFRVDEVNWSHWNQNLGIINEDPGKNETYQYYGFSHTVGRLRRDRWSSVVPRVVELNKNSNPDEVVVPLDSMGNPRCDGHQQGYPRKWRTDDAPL
Description: Cell culture and transfection. HEK293 cells (ATCC® CRL-1573) were cultured on poly-D-lysine coated coverslips in 24-well plate containing DMEM media with high-Glucose (Gibco, Gaithersburg, MD) supplemented with 10% fetal bovine serum (FBS, HyClone Laboratories, Logan, UT) and 100 U/mL of penicillin/streptomycin (Gibco, Gaithersburg, MD). Cell cultures were maintained with 5% of CO2 in a humidified incubator at 37° C. HEK cells were transfected with rat or human wild type or mutant TRPV4 channels with EGFP or YFP coupled to their C-termini (1.5 μg of plasmid for excised patch clamp and Ca^2+ imaging and 200 ng for single-channel experiments). The jetPEI™ Polyplus transfection reagent (Polyplus Transfection, New York, NY) for electrophysiology or Lipofectamine™ 2000 Reagent (Invitrogen, Waltham, MA) for Ca^2+ imaging were used for transfections per manufacturer's instructions as previously described (Chen et al. Pain 2014, 155, 2662-2672; Morales-Lazaro et al. Nat. Commun. 2016, 7, 13092). To investigate whether miR-146a can directly activate TRPV1 channels or indirectly via TLRs, HEK293 cells were transfected with rTRPV1 or co-transfected rTRPV1 with rTLR7, rTLR2, or rTLR6 (Addgene, Watertown, MA) for Ca^2+ imaging assay. Control cells were transfected with GFP or YFP.
In vitro and ex vivo Ca^2+ imaging. Routine procedures were followed for Ca^2+ imaging in cultured DRG sensory neurons, epidermal keratinocytes, and HEK cells (Chen et al. J. Biol. Chem. 2016, 291, 10252-10262; Chen et al. Pain 2014, 155, 2662-2672). Ca^2+ imaging of cultured cells in response to chemicals was conducted after loading with 5 μM Fura2-AM (Invitrogen, Waltham, MA) for 45 min after a ratiometric Ca^2+-imaging protocol with 340/380-nm blue light for dual excitation. Ratios of emissions were acquired at 0.5 Hz. ΔR/R0 was determined as the fraction of the increase of a given ratio over baseline ratio divided by baseline ratio. To investigate the effects of the TRPV4 inhibitors GSK205 or HC067047, the PLC inhibitor U73122, the Gag G Protein inhibitor BIM46187, the Gβγ G protein inhibitor Gallein, the TRPV1 inhibitor SB366791, the TRPA1 inhibitor HC030031, and IPP for TRPV3, on LPA-induced Ca^2+ influx, LPC-induced Ca^2+ influx, or miR-146α-induced Ca^2+ influx, cells were incubated with the inhibitors for 15 min before stimulation. Control cells received vehicles.

mice [2] = test: Effect of inhibitor pretreatment on LPA-, LPC- or miR-146a-induced scratching behavior; type: in vivo, mouse; settings: for effect on scratching evoked by i.d. miR-146a (4 nmol) (TLR inhibitors): i.p. 10 mg/kg
Description: as §1, with “Mice were allowed to acclimate to a Plexiglas chamber for at least 30 min before testing and received intradermal (i.d.) injection of 50 μL of LPA 18:1, LPC, LPC 14:0, LPC 16:0, LPC 18:0, LPC 18:1, miR-146a mimic, miR-146a scramble, ATP or vehicles through a 30-gauge needle (Becton Dickinson, Franklin Lakes, NJ) into the neck skin.” left out
Control animals received the same volume of vehicles.
Lumbar puncture was made with a 30G-needle and drugs at 5 μL of volume were delivered. Scratching behavior assay was started approximately 2 weeks after resiniferatoxin treatment.

## Nc1ncnc2c1ncn2[C@@H]1O[C@H](COP(=O)(O)OP(=O)(O)OP(=O)(O)O)[C@@H](O)[C@H]1O [ATP, adenosine triphosphate]
Mice [1]; i.d. 10 nmol or 100 nmol vs normal saline
  scratching behavior induced by i.d. ATP: not to have any pruritogenic effects; also recorded: did not elicit significant scratching behaviors

## N[C@@H](CSSC[C@H](N)C(=O)N1CCn2cc(-c3ccccc3)nc2[C@@H]1CC1CCCCC1)C(=O)N1CCn2cc(-c3ccccc3)nc2[C@@H]1CC1CCCCC1 [BIM46187]
Mouse keratinocytes
  effect on LPC 18:1 (10 μM)-induced Ca2+ influx (GPCR-signaling inhibitors): not significantly altered
Mouse keratinocytes; listed as BIM-46187
  effect on LPC 18:1 (10 μM)-induced Ca2+ influx (GPCR-signaling inhibitors): no inhibitory effects
Human keratinocytes
  effect on LPC 18:1 (10 μM)-induced Ca2+ influx (GPCR-signaling inhibitors): not significantly altered
Human keratinocytes; listed as BIM-46187
  effect on LPC 18:1 (10 μM)-induced Ca2+ influx (GPCR-signaling inhibitors): no inhibitory effects
hTRPV4
  effect on LPC 18:1 (10 μM)-induced Ca2+ influx (GPCR-signaling inhibitors): not significantly altered
hTRPV4; listed as BIM-46187
  effect on LPC 18:1 (10 μM)-induced Ca2+ influx (GPCR-signaling inhibitors): no inhibitory effects

## c1cc(-c2nc3ccc(OCCCN4CCCC4)cc3o2)ccc1OCCCN1CCCC1 [E6446]
Mice [2]
  effect on scratching evoked by i.d. miR-146a (4 nmol) (TLR inhibitors): not significantly altered

## O=C(O)CC1CC(c2ccccc2)=NO1 (centres unmarked) [GIT27]
Mice [2]
  effect on scratching evoked by i.d. miR-146a (4 nmol) (TLR inhibitors): not significantly altered

## O=C1OC2(c3ccccc31)c1ccc(O)c(O)c1Oc1c2ccc(O)c1O [Gallein]
Mouse keratinocytes
  effect on LPC 18:1 (10 μM)-induced Ca2+ influx (GPCR-signaling inhibitors): no inhibitory effects; also recorded: not significantly altered
Human keratinocytes
  effect on LPC 18:1 (10 μM)-induced Ca2+ influx (GPCR-signaling inhibitors): no inhibitory effects; also recorded: not significantly altered
hTRPV4
  effect on LPC 18:1 (10 μM)-induced Ca2+ influx (GPCR-signaling inhibitors): no inhibitory effects; also recorded: not significantly altered

## O=C(CCN1CCN(C(=O)OCc2cc(Cl)cc(Cl)c2)CC1)c1ccc2[nH]c(=O)oc2c1 [PF8380]
Mice [2]; i.p. pretreatment 10 mg/kg, WT mice
  effect on LPC-induced itch (autotaxin inhibitor), WT mice: attenuated

## COc1ccc2c(c1)CC[C@@H]1[C@@H]2CC[C@]2(C)[C@@H](NCCCCCCN3C(=O)C=CC3=O)CC[C@@H]12 [U73122]
Mouse keratinocytes
  effect on LPC 18:1 (10 μM)-induced Ca2+ influx (GPCR-signaling inhibitors): no inhibitory effects; also recorded: not significantly altered
Human keratinocytes
  effect on LPC 18:1 (10 μM)-induced Ca2+ influx (GPCR-signaling inhibitors): no inhibitory effects; also recorded: not significantly altered
hTRPV4
  effect on LPC 18:1 (10 μM)-induced Ca2+ influx (GPCR-signaling inhibitors): no inhibitory effects; also recorded: not significantly altered

## LPC 14:0
Mice [1]
  scratching behavior (itch) induced by i.d. injection of lipid: caused robust itch

## lysophosphatidic acid [LPA (18:1)]
Mice [1]; i.d. 500 μg into dorsal neck, WT mice
  scratch bouts: 58 scratch bouts in 30 min
Mice [1]
  scratching behavior (itch) induced by i.d. injection of lipid: elicited moderate scratching; also recorded: induced itch
Mouse keratinocytes
  LPA (18:1) induced Ca2+ influx: not dose-dependent and was less robust than that of LPC
Mouse keratinocytes; listed as LPA
  LPA (18:1) induced Ca2+ influx: much reduced
Human keratinocytes
  LPA (18:1) induced Ca2+ influx: not dose-dependent and was less robust than that of LPC
Human keratinocytes; listed as LPA
  LPA (18:1) induced Ca2+ influx: much reduced
